Like-named read-outs stand apart in the source and are kept apart here. No end group written: not given here.
Experiments:
Experiment in all cases: biochemical
H-2Dd = H-2Dd (Mus musculus, UniProt P01900); type: binding, murine
HLA-B*0702 = HLA-B*0702 (Homo sapiens, UniProt P01889); type: binding
H-2 Db = H-2 Db (Mus musculus, UniProt P01899); type: binding, murine; conditions: Db
[1] = biological target: HLA-DQ DQA1*0301/B*0301 (DQ7) (Homo sapiens, UniProt P01909+P01920, A209T/C70Q/DUP78-78/E183D/F237L/G63E/I129T/K197E/L178F/L74F/L98V/Q57E/Q76R/S185I/S97I/T49S/V73L); type: binding
HLA-DR DRB5*0101 (DR51) = HLA-DR DRB5*0101 (DR51) (Homo sapiens, UniProt P01903+Q30154); type: binding
HLA-DR DRB1*1501 (DR15) = HLA-DR DRB1*1501 (DR15) (Homo sapiens, UniProt P01903+P01911); type: binding; conditions: read-out: DRBI *1501
HLA-DR DRB4*0101 (DR53) = HLA-DR DRB4*0101 (DR53) (Homo sapiens, UniProt P01903+P13762, G164S); type: binding; conditions: read-out: DRB4 *0101
HLA-DR DRB1*1101 (DR11) = HLA-DR DRB1*1101 (DR11) (Homo sapiens, UniProt P01903+P01911, A100R/A169T/A87E/I96F/K41T/L162R/M171V/P40S/Q125H/Q178H/Q39Y/Q99D/R42S/S66Y/T262R/V115G/W38E); type: binding
Sequence of HLA-DR DRB1*1101 (DR11) (P01903 26-254 limits assumed, other chains not shown): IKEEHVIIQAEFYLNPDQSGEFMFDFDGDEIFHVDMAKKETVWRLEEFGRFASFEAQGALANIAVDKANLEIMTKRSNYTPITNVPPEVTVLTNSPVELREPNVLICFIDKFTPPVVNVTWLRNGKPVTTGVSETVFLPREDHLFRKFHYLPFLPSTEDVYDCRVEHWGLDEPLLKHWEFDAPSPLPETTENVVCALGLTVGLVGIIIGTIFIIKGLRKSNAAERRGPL

HLA-DR DRB1*1302 (DR13) = HLA-DR DRB1*1302 (DR13) (Homo sapiens, UniProt P01903+P01911, A100E/A169T/K41T/L162R/M171V/P40S/Q125H/Q178H/Q39Y/Q99D/R42S/S66N/T262R/V115G/W38E/Y61H); type: binding; conditions: read-out: DRBI *1302
Sequence of HLA-DR DRB1*1302 (DR13) (P01903 26-254 limits assumed, other chains not shown): as above

HLA-DR DRB1*0701 (DR7) = HLA-DR DRB1*0701 (DR7) (Homo sapiens, UniProt P01903+P01911, A100R/A102G/A103Q/D57E/D86V/E43K/F76Y/K127E/L162R/M171V/P40G/Q125H/Q99D/R33Q/R42Y/R54Q/S133A/S66F/T210M/V115G/Y107V/Y59L/Y89S); type: binding; conditions: DRB1 *0701
HLA-DR DRB1*0401 (DR4) = HLA-DR DRB1*0401 (DR4) (Homo sapiens, UniProt P01903+P01911, A100K/A169T/F76Y/I96L/K127E/L162R/M171V/N62H/P40V/Q125Y/R42H/S133A/S149N/S66Y/V115G/V209L/W38E); type: binding; conditions: DRB1 *0401

Sequence of H-2 Db (P61769 21-119): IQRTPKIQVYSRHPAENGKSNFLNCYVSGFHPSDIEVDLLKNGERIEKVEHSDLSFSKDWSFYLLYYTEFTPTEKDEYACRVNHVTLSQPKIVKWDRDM
Sequence of H-2 Db (P01899 25-362): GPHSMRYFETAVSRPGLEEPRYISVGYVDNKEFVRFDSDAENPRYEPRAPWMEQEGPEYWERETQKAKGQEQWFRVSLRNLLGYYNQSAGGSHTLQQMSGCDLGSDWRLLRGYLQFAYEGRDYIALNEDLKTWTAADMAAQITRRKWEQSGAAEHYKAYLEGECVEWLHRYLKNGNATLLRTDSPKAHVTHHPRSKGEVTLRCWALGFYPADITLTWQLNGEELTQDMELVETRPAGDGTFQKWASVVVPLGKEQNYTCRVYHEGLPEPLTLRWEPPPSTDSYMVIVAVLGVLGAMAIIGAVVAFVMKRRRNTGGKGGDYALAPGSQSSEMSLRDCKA
Sequence of H-2Dd (P01900 25-365): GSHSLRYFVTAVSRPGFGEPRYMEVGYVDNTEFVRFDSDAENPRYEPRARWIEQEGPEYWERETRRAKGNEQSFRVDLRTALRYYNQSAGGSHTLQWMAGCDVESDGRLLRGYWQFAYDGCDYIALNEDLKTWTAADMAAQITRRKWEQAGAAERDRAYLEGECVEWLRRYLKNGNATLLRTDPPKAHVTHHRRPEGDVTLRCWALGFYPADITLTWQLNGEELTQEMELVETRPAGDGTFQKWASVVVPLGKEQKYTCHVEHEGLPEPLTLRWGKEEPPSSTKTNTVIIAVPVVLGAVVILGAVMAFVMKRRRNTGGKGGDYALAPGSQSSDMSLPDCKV
Sequence of H-2Dd (P61769 21-119, further chain): as the sequence (P61769 21-119) above

RGPYRAFVKI showed an IC50 (H-2Dd) of 3.9 nM.
RPGPGPGAV gave an IC50 (HLA-B*0702; B*0702 binding affinity (IC50)) of 23 nM.
In the case of KGPYRAFVTI, the IC50 (H-2Dd) is reported as 5.8 nM.
Compound KAVYNFATCGI has an IC50 (H-2 Db) of 29 nM.
In the case of IDVWLGDLAENFLPY, the IC50 [1] is reported as > 44600 nM.
For RLIQNFLTI, the IC50 (H-2 Db) was 40 nM.
For IDVWLGGLDENFLPY, the IC50 [1] was > 19200 nM.
With RGPARAFVTI the IC50 (H-2Dd) was 1.04 nM.
For GMRQNATEI, the IC50 (H-2 Db) was 81 nM.
Compound RPRGPGPGV has an IC50 (HLA-B*0702; B*0702 binding affinity (IC50)) of 11 nM.
XVXDNATEY was tested, and the IC50 (HLA-B*0702; read-out: B*0702 binding affinity (IC50)) was > 55000 nM.
(44)YAAAAAAKAAA was tested, and the IC50 ([1]; read-out: DQB1*0301) was 26 nM.
For APAAGPGPGPA, the IC50 (HLA-B*0702; B*0702 binding affinity (IC50)) was 173 nM.
DDVWLGGLAEKFLPY showed an IC50 ([1]; read-out: DQB1*0301) of 241 nM.
For SHYAFSPM, the IC50 (H-2 Db) was > 88000 nM.
In the case of APRTGPGPGL, the IC50 (HLA-B*0702; B*0702 binding affinity (IC50)) is reported as 15 nM.
CSANNSHHYM was tested, and the IC50 (H-2 Db) was 42 nM.
QLQQFQKEDAAVTIY showed an IC50 (HLA-DR DRB5*0101 (DR51); read-out: DRB5 *0101) of 4270 nM, an IC50 (HLA-DR DRB1*1501 (DR15)) of 1720 nM and an IC50 (HLA-DR DRB4*0101 (DR53)) of 1340 nM. For the same compound, the IC50 ([1]; read-out: DQB1*0301) was 26200 nM, the IC50 (HLA-DR DRB1*1101 (DR11); read-out: DRB1 *1101) was > 408000 nM and the IC50 (HLA-DR DRB1*1302 (DR13)) was 68 nM.
Work on CC[C@H](C)[C@H](NC(=O)[C@@H](NC(=O)[C@@H](NC(=O)[C@H](Cc1ccccc1)NC(=O)[C@H](C)NC(=O)[C@H](CCCNC(=N)N)NC(=O)CNC(=O)[C@@H]1CCCN1C(=O)CNC(=O)[C@@H](N)CCCNC(=N)N)C(C)C)[C@@H](C)O)C(=O)O yielded an IC50 (H-2 Db) of 22000 nM.
YMRVNGKWM was tested, and the IC50 (H-2 Db) was 50 nM.
Work on RPRFGPGPGEF yielded an IC50 (HLA-B*0702; B*0702 binding affinity (IC50)) of 14 nM.
With CC(C)C[C@H](NC(=O)CNC(=O)[C@H](CCC(N)=O)NC(=O)[C@H](Cc1ccc(O)cc1)NC(=O)[C@@H](NC(=O)[C@H](Cc1ccc(O)cc1)NC(=O)CNC(=O)[C@@H](N)CCCNC(=N)N)C(C)C)C(=O)O the IC50 (H-2Dd) was > 37000 nM and the IC50 (H-2 Db) was > 44000 nM.
In the case of RGPFRAFVTI, the IC50 (H-2Dd) is reported as 0.78 nM.
For RGKYRAFVTI, the IC50 (H-2Dd) was 67 nM.
With GSDLVEALYLVCGER the IC50 [1] was > 89300 nM.
With AHAAHAAHAAHAAHAA the IC50 (HLA-DR DRB5*0101 (DR51); DRB5 *0101) was ≥ 200000 nM, the IC50 (HLA-DR DRB1*0701 (DR7)) was > 250000 nM and the IC50 (HLA-DR DRB1*0401 (DR4)) was 80000 nM. The IC50 [1] was 58 nM and the IC50 (HLA-DR DRB1*1101 (DR11); DRB1 *1101) was ≥ 200000 nM.
For CSCC[C@H](NC(=O)[C@H](C)NC(=O)[C@H](C)NC(=O)[C@H](Cc1ccc(O)cc1)NC(=O)[C@H](C)NC(=O)[C@H](C)NC(=O)[C@H](C)NC(=O)[C@H](C)N)C(=O)O, the IC50 (H-2 Db) was > 44000 nM.
Work on RGPYRAFVTK yielded an IC50 (H-2Dd) of 91 nM.
SDSNYYDLLKDLEEG was tested, and the IC50 ([1]; read-out: DQB1*0301) was > 89300 nM.
RGPYRAFKTI was tested, and the IC50 (H-2Dd) was 2.3 nM.
RGPGRAYVTI showed an IC50 (H-2Dd) of 14 nM.
SQVMNLHNL showed an IC50 (H-2 Db) of 2.3 nM.
For VPGPGPGL, the IC50 (HLA-B*0702; B*0702 binding affinity (IC50)) was 1520 nM.
RGPYRAFVAI was tested, and the IC50 (H-2Dd) was 1.3 nM.
In the case of WGPSLYSIL, the IC50 (H-2Dd) is reported as 6.6 nM.
